Measurements from US6461997B1, “Triazole sulfones having herbicidal activity” (Monsanto Technology LLC, priority 1999, dated 2002).

Columns and labels:
[1] = test system: SOLNI (black nightshade); assay: Pre-emergence herbicidal activity, warm season; type: in vivo, Solanum nigrum; conditions: GR80 = lowest tested rate (300, 100, 30, 10 g/ha) with 80% or greater inhibition; approx. 14 days after treating; 30/21° C.
How it was run: (§1)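 Seeds sown in sterilised fertilised topsoil received surface-applied compound in 50:50 acetone/water, typically at 300, 100, 30 and 10 g/ha, then greenhouse-grown at 30/21° C (warm-season species) or 18/13° C (cool-season species). Percent inhibition versus untreated plants was scored at about 14 days, giving GR80; an asterisk marks activity short of 80% at the top rate.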

[2] = test system: CHEAL (common lambsquarters); assay: Pre-emergence herbicidal activity, warm season; type: in vivo, Chenopodium album; conditions: GR80 = lowest tested rate (300, 100, 30, 10 g/ha) with 80% or greater inhibition; approx. 14 days after treating; 30/21° C.
How it was run: as §1

[3] = test system: POROL (common purslane); assay: Pre-emergence herbicidal activity, warm season; type: in vivo, Portulaca oleracea; conditions: GR80 = lowest tested rate (300, 100, 30, 10 g/ha) with 80% or greater inhibition; approx. 14 days after treating; 30/21° C.
How it was run: as §1

[4] = test system: ECHCG (barnyardgrass); assay: Pre-emergence herbicidal activity, warm season; type: in vivo, Echinochloa crus-galli; conditions: GR80 = lowest tested rate (300, 100, 30, 10 g/ha) with 80% or greater inhibition; approx. 14 days after treating; 30/21° C.
How it was run: (§2)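 Activity is expressed as the rate giving 80% inhibition, with 300, 100, 30 and 10 g/ha typically tested. An asterisk marks activity short of 80% at the top rate. Warm-season grasses were held at 30/21 °C; cool-season blackgrass and wild buckwheat at 18/13 °C; scoring at about 14 days.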

[5] = test system: PANMI (wild proso millet); assay: Pre-emergence herbicidal activity, warm season; type: in vivo, Panicum miliaceum; conditions: GR80 = lowest tested rate (300, 100, 30, 10 g/ha) with 80% or greater inhibition; approx. 14 days after treating; 30/21° C.
How it was run: (§3)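 Herbicidal efficacy was judged visually as percent inhibition compared with untreated plants some 14 days after treatment, giving GR80 over doses of 10 to 300 g/ha. Proso millet and crabgrass grew at 30/21 °C; blackgrass and wild buckwheat grew at 18/13 °C.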

[6] = test system: SORHA (johnsongrass (seedling)); assay: Pre-emergence herbicidal activity, warm season; type: in vivo, Sorghum halepense; conditions: GR80 = lowest tested rate (300, 100, 30, 10 g/ha) with 80% or greater inhibition; approx. 14 days after treating; 30/21° C.
How it was run: as §2

[7] = test system: SETFA (giant foxtail); assay: Pre-emergence herbicidal activity, warm season; type: in vivo, Setaria faberi; conditions: GR80 = lowest tested rate (300, 100, 30, 10 g/ha) with 80% or greater inhibition; approx. 14 days after treating; 30/21° C.
How it was run: as §2

[8] = test system: PANDI (fall panicum); assay: Pre-emergence herbicidal activity, warm season; type: in vivo, Panicum dichotomiflorum; conditions: GR80 = lowest tested rate (300, 100, 30, 10 g/ha) with 80% or greater inhibition; approx. 14 days after treating; 30/21° C.
How it was run: as §2

[9] = test system: SORVU (shattercane); assay: Pre-emergence herbicidal activity, warm season; type: in vivo, Sorghum vulgare; conditions: GR80 = lowest tested rate (300, 100, 30, 10 g/ha) with 80% or greater inhibition; approx. 14 days after treating; 30/21° C.
How it was run: as §2

[10] = test system: BRAPP (broadleaf signalgrass); assay: Pre-emergence herbicidal activity, warm season; type: in vivo, Brachiaria platyphylla; conditions: GR80 = lowest tested rate (300, 100, 30, 10 g/ha) with 80% or greater inhibition; approx. 14 days after treating; 30/21° C.
How it was run: as §2

[11] = test system: DIGSA (large crabgrass); assay: Pre-emergence herbicidal activity, warm season; type: in vivo, Digitaria sanguinalis; conditions: GR80 = lowest tested rate (300, 100, 30, 10 g/ha) with 80% or greater inhibition; approx. 14 days after treating; 30/21° C.
How it was run: as §3

[12] = test system: GALAP (catchweed bedstraw); assay: Pre-emergence herbicidal activity, cool season; type: in vivo, Galium aparine; conditions: lowest tested rate with 80% or greater inhibition; rates 300, 100, 30, 10 g/ha; about 14 days
How it was run: as §1

[13] = test system: POLCO (wild buckwheat); assay: Pre-emergence herbicidal activity, cool season; type: in vivo, Polygonum convolvulus; conditions: lowest tested rate with 80% or greater inhibition; rates 300, 100, 30, 10 g/ha; about 14 days
How it was run: as §3

[14] = test system: SINAR (wild mustard); assay: Pre-emergence herbicidal activity, cool season; type: in vivo, Sinapis arvensis; conditions: lowest tested rate with 80% or greater inhibition; rates 300, 100, 30, 10 g/ha; about 14 days
How it was run: as §1

[15] = test system: VERPE (creeping speedwell); assay: Pre-emergence herbicidal activity, cool season; type: in vivo, Veronica persicaria; conditions: lowest tested rate with 80% or greater inhibition; rates 300, 100, 30, 10 g/ha; about 14 days
How it was run: as §1

[16] = test system: SASKR (russian thistle); assay: Pre-emergence herbicidal activity, cool season; type: in vivo, Salsola kali; conditions: lowest tested rate with 80% or greater inhibition; rates 300, 100, 30, 10 g/ha; about 14 days
How it was run: as §1

[17] = test system: STEME (common chickweed); assay: Pre-emergence herbicidal activity, cool season; type: in vivo, Stellaria media; conditions: lowest tested rate with 80% or greater inhibition; rates 300, 100, 30, 10 g/ha; about 14 days
How it was run: as §1

[18] = test system: LAMPU (purple deadnettle); assay: Pre-emergence herbicidal activity, cool season; type: in vivo, Lamium purpureum; conditions: lowest tested rate with 80% or greater inhibition; rates 300, 100, 30, 10 g/ha; about 14 days
How it was run: as §1

[19] = test system: ALOMY (blackgrass); assay: Pre-emergence herbicidal activity, cool season; type: in vivo, Alopecurus myosuroides; conditions: GR80 = lowest tested rate (300, 100, 30, 10 g/ha) with 80% or greater inhibition; approx. 14 days after treating; 18/13° C.
How it was run: as §3

[20] = test system: SETVI (green foxtail); assay: Pre-emergence herbicidal activity, cool season; type: in vivo, Setaria viridis; conditions: GR80 = lowest tested rate (300, 100, 30, 10 g/ha) with 80% or greater inhibition; approx. 14 days after treating; 18/13° C.
How it was run: as §1

[21] = test system: LOLMG (annual ryegrass); assay: Pre-emergence herbicidal activity, cool season; type: in vivo, Lolium multiflorum; conditions: GR80 = lowest tested rate (300, 100, 30, 10 g/ha) with 80% or greater inhibition; approx. 14 days after treating; 18/13° C.
How it was run: as §1

[22] = test system: AVEFA (wild oat); assay: Pre-emergence herbicidal activity, cool season; type: in vivo, Avena fatua; conditions: GR80 = lowest tested rate (300, 100, 30, 10 g/ha) with 80% or greater inhibition; approx. 14 days after treating; 18/13° C.
How it was run: as §1

[23] = test system: AEGCY (jointed goatgrass); assay: Pre-emergence herbicidal activity, cool season; type: in vivo, Aegilops cylindrica; conditions: GR80 = lowest tested rate (300, 100, 30, 10 g/ha) with 80% or greater inhibition; approx. 14 days after treating; 18/13° C.
Procedure: (§4) Tables 5 to 8 summarize results of tests conducted as described below to determine the pre-emergence herbicidal activity, in the form of a GR80 value, of illustrative compounds of this invention. […] Compounds of the invention were typically applied at rates of 300, 100, 30, and 10 g/ha. Where herbicidal activity was evident but 80% inhibition was not achieved at the highest rate tested, an asterisk (*) is shown in the following tables.
(§5) The pre-emergence tests were conducted by the following procedure. Topsoil was sieved to pass through a 1.27 cm screen. Fertilizer was added to the topsoil and the mixture was then sterilized by heating. The topsoil mixture was placed in a pot and compacted to a depth of 1.0 to 1.25 cm from the top of the pot. Seeds of each of several monocotyledonous and dicotyledonous annual plant species were placed on top of the soil. Additional soil was subsequently placed over the seeds to level-fill the pot. A known amount of each test compound dissolved or suspended in an appropriate organic solvent was diluted with a 50:50 mix of acetone and water and applied to the surface of the soil. After treatment the plants were placed in a greenhouse where they received 0.64 cm of overhead irrigation. All subsequent watering consisted of a light overhead mist and/or subirrigation as needed for germination and growth. Tables 5 and 6 below relate to warm season plant species which were placed after pre-emergence treatment in a greenhouse with a 30/21° C. day/night temperature regime. Tables 7 and 8 below relates to cool season plant species placed after pre-emergence treatment in a greenhouse or growth chamber with an 18/13° C. day/night temperature regime.
(§6) Approximately 14 days after planting and treating, the plants were observed and herbicidal efficacy recorded as percent inhibition by comparison with untreated plants.
(§7) The plant species usually regarded as weeds which were utilized in the tests are identified in the tables below according to the following legend, in which “d” indicates a dicotyledonous species and “m” a monocotyledonous species. All monocotyledonous species included in the tests herein are grasses.

[24] = test system: AGSST (creeping bentgrass); assay: Pre-emergence herbicidal activity, cool season; type: in vivo, Agrostis stolonifera; conditions: GR80 = lowest tested rate (300, 100, 30, 10 g/ha) with 80% or greater inhibition; approx. 14 days after treating; 18/13° C.
How it was run: as §1

[25] = test system: AGRRE (quackgrass (seedling)); assay: Pre-emergence herbicidal activity, cool season; type: in vivo, Elymus repens; conditions: GR80 = lowest tested rate (300, 100, 30, 10 g/ha) with 80% or greater inhibition; approx. 14 days after treating; 18/13° C.
Procedure: as §4, §5, §6, §7

SMILES	Pre-emergence activity (GR80) SOLNI [1] [g/ha]	Pre-emergence activity (GR80) POROL [3] [g/ha]	Pre-emergence activity (GR80) PANMI [5] [g/ha]	Pre-emergence activity (GR80) SETFA [7] [g/ha]	Pre-emergence activity (GR80) DIGSA [11] [g/ha]	Pre-emergence activity GR80, GALAP [12] [g/ha]	Pre-emergence activity GR80, POLCO [13] [g/ha]	Pre-emergence activity GR80, SINAR [14] [g/ha]	Pre-emergence activity GR80, VERPE [15] [g/ha]	Pre-emergence activity GR80, SASKR [16] [g/ha]	Pre-emergence activity GR80, STEME [17] [g/ha]	Pre-emergence activity GR80, LAMPU [18] [g/ha]	Pre-emergence activity (GR80) ALOMY [19] [g/ha]	Pre-emergence activity (GR80) SETVI [20] [g/ha]	Pre-emergence activity (GR80) AVEFA [22] [g/ha]	Pre-emergence activity (GR80) AEGCY [23] [g/ha]	Pre-emergence activity (GR80) AGSST [24] [g/ha]	Pre-emergence activity (GR80) AGRRE [25] [g/ha]	other results
CCCN(CC)C(=O)n1cnc(S(=O)(=O)C(F)(F)SCC)n1 [Example 51]	300	300	100	100	100	100	100	10	10	100	10	10	300	100	300	300	10	300	Pre-emergence activity (GR80) CHEAL [2]: 10 g/ha; Pre-emergence activity (GR80) ECHCG [4]: 100 g/ha; Pre-emergence activity (GR80) SORHA [6]: 100 g/ha; Pre-emergence activity (GR80) PANDI [8]: 100 g/ha; Pre-emergence activity (GR80) SORVU [9]: 30 g/ha; Pre-emergence activity (GR80) BRAPP [10]: 100 g/ha; Pre-emergence activity (GR80) LOLMG [21]: 100 g/ha
COCCN(C)C(=O)n1cnc(S(=O)(=O)C(F)(F)C(F)(F)Br)n1 [Example 76]	300	300	100	300	300	100	300	10	30	30	300	100	300	100	300	300	100	100	–
